pEC50: −log10 of the molar value. Values after ≈ are worked out from the molar mass of the structure shown. Read-outs that look alike come from different tables or passages of the source.
Columns and labels:
in vitro [1] = details: human
Adenovirus Type 5 = test: microbe, parasite or virus in culture; format: cell-based; details: Human mastadenovirus C, A549, read-out: CPE Inhibition EC50
[2] = Cytotoxicity by neutral red dye uptake, BSC-1 cells; details: African green monkey
Hepatitis B Virus (HBV) [3] = test: HBV proteins and nucleic acids in 2.2.15 cells; format: cell-based; details: Day 9, 2.2.15 cells; robustaflavone @10 μM
Method: Values of HBV proteins were determined by semi-quantitative EIA performed as previously described.^83 For the EIA analyses, test samples-were diluted (2- to 10-fold) so that the assay values produced were within the linear dynamic range of the EIA assays. Standard curves using serial dilutions of positive assay controls were included in each set of EIA analyses. HBV surface antigen ([…]), preSI protein, and HBc antigen ([…]) are released as extracellular products and were therefore analyzed in culture medium obtained 24 h following the last treatment dose of oligonucleotides or 2′, 3′-ddc. HBV core antigen (HBcAg) is an intracellular viral protein and was assayed in cell extracts produced by Triton-X-100 lysis.^83
Cultures for HBV RNA were maintained on 6-well plates, cultures for HBV virion DNA analyses were maintained on either 96- or 24-well plates, and cultures for all other HBV parameters were maintained on 24-well plates.
The concentrations of antiviral agents used in these studies approximates the EC50 values of the individual agents against intracellular HBV DNA replication intermediates (HBV RI). Cultures were treated with the indicated agents for 9 days using standard procedures. Values reported are the levels of the indicated HBV markers at the end of the treatment period (“DAY 9”) expressed as a percentage (±standard deviation (S.D.) of the average levels in the control cultures at the beginning of the treatment period (“DAY 0”). The method of expression permits an analysis of the variation of the HBV markers in the untreated (control) cultures over the course of the treatment period. HBV nucleic acid levels were measured by standard blot hydridization (dot, Southern, or Northern). HBV protein levels were measured by standard semi-quantitative EIA methods. Cultures for HBV RNA were maintained in 6-well culture plates. The levels of each of two major classes of HBV RNA transcripts are listed separately. Cultures for all other HBV markers were maintained in 24-well culture plates. For each treatment, a total of 4 separate cultures were used for the analysis of each HBV marker at both DAY 0 and DAY 9.
Determination of Mechanism of Action. Measurements of intracellular and extracellular HBV DNA, 3.6 kb and 2.1 kb mRNA fragments, and HBsAg, HBeAg and HBcAg protein markers were conducted as previously described (93).

in vitro [4] = details: African green monkey
[5] = system: Parainfluenza Type 3 Virus; test: organism not typed; format: cell-based; details: MA104, read-out: Neutral Red EC50
Hepatitis B Virus (HBV) [6] = test: HBV replication intermediates (RI, intracellular HBV DNA) in 2.2.15 cells; format: cell-based
Method: (§1) Test compounds were added daily for a nine continuous day period; the culture medium was collected and stored for analysis of extracellular (virion) HBV DNA after 0, 3, 6, and 9 days of treatment. The treated cells were lysed 24 hours following day 9 of treatment for the analysis of intracellular HBV genomic forms. The overall levels of HBV DNA (both extracellular and intracellular DNA) and the relative rate of HBV replication (intracellular DNA) were analyzed quantitatively. The analysis was performed using blot hybridization techniques and [^32P]-labeled HBV-specific probes. The HBV DNA levels were measured by comparison to known amounts of HBV DNA standards applied to every nitrocellulose membrane (gel or slot blot). An AMBIS beta scanner, which measures the radioactive decay of the hybridized probes directly from the nitrocellulose membranes, was used for the quantitative analysis. Standard curves, generated by multiple analyses, were used to correlate CPM measurements made by the beta scanner with relative levels of target HBV DNA. The levels of HBV virion DNA released into the culture medium were analyzed by a slot blot hybridization procedure. HBV DNA levels were then compared to those at day 0 to determine the effect of the test compound. A known positive drug was evaluated in parallel with test compounds in each test.

[7] = system: Respiratory Syncytial Virus; test: microbe, parasite or virus in culture; format: cell-based; details: human respiratory syncytial virus, MA104; read-out: Neutral Red EC50
[8] = system: Influenza A (H1N1) Texas/36/91; test: microbe, parasite or virus in culture; format: cell-based, influenza A virus; details: Influenza A virus, MDCK; Influenza A (H1N1) Texas/36/91; read-out: CPE Inhibition EC50
Hepatitis B Virus (HBV) [9] = test: Inhibition of HBV replication in 2.2.15 cells, extracellular (virion) HBV DNA; details: for EC90: 2.2.15 cells; for SI (CC50/EC90), HBV Virion: selective index;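 for all read-outs here: extracellular virion HBV DNA in culture medium measured by slot blot hybridization with a 32P-labeled HBV probe, quantified against HBV DNA standards, after 9 days of daily dosing, compared with day 0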
Method: as §1
Determination of therapeutic concentrations (EC50 and EC90) and toxicity concentrations (IC50) were determined as previously described (90). Stock solutions of text drugs were prepared in DMSO. Culture medium was changed daily and analyzed for extracellular HBV DNA after nine days of continuous drug exposure. Extracellular HBV DNA was extracted from the culture media and analyzed by a slot blot hydridization technique, using a ^32P-labeled Eco RI HBV DNA fragment, as previously described (91), and quantitated via comparison to HBV standards on a nitrocellulose filter, using an AMBIS beta scanner. Toxicity was determined by measuring inhibition of neutral red dye uptake. […] Effective concentration values for individual agents are the mean of six cultures per concentration point. Toxicity values are the mean of three cultures per concentration point.

[10] = range-finding, CMC vehicle, 200 mg/kg/day i.p. twice daily for 5 days
[11] = range-finding, DMSO, 75 mg/kg/day, 0.05 mL injection volume
[12] = range-finding, DMSO, 250 mg/kg/day i.p. twice daily for 5 days, 0.1 mL
[13] = robustaflavone in DMSO, 37.5 mg/kg/day i.p. bid × 5
[14] = robustaflavone in DMSO, 75 mg/kg/day i.p. bid × 5

O=c1cc(-c2ccc(O)c(-c3c(O)cc4oc(-c5ccc(O)cc5)cc(=O)c4c3O)c2)oc2cc(O)cc(O)c12 [Robustaflavone (3), robustaflavone]
IC50 (in vitro [1]): 56 µg/mL (≈ 104 µM)
EC50 (Adenovirus Type 5): > 100 µg/mL
IC50 [2]: ~100 µg/mL (≈ 186 µM)
Viral Antigens: HBeAg (Hepatitis B Virus (HBV) [3]): 86 ± 6 % of Day 0 Control
Viral Antigens: HBsAg (Hepatitis B Virus (HBV) [3]): 97 ± 6 % of Day 0 Control
Viral Antigens: HbcAG (Hepatitis B Virus (HBV) [3]): 138 ± 8 % of Day 0 Control
Viral DNA: Extracellular DNA (Hepatitis B Virus (HBV) [3]): 1 ± 1 % of Day 0 Control
Viral DNA: Intracellular DNA (Hepatitis B Virus (HBV) [3]): 5 ± 1 % of Day 0 Control
Viral mRNA: 3.6 kb and 2.1 kb mRNA (first column) (Hepatitis B Virus (HBV) [3]): 93 ± 10 % of Day 0 Control
IC50 (in vitro [4]; CPE Inhibition IC50 (cytotoxic), Respiratory Syncytial Virus test): 56 µg/mL (≈ 104 µM)
IC50 (in vitro [4]; CPI Inhibition IC50 (cytotoxic), Parainfluenza Type 3 Virus test): 56 µg/mL (≈ 104 µM)
tolerability in the antiviral experiment (in words) (CMC, 200 and 100 mg/kg/day): well tolerated
toxicity control mice killed (DMSO, 37.5 mg/kg/day): 2 of 3
toxicity in the antiviral experiment (in words) (DMSO, 75 mg/kg/day): lethally toxic
toxicity in the antiviral experiment (in words) (DMSO, 75 and 37.5 mg/kg/day): toxic to the mice
Toxicity Controls Surv/Total (female, BALB/c, mouse, in vivo, ip, 200 mg/kg/day): 3/3
Toxicity Controls Mean Weight Change (mouse, in vivo, ip, 200 mg/kg/day): 1.5 g
Toxicity Controls Mean Weight Change (mouse, in vivo, ip, 1005 mg/kg/day): 1.9 g
tolerability (in words) [10]: reasonably well tolerated
weight lost in the 5-day treatment period [10]: 0.1 g
survival (in words) [11]: all mice survived
weight lost during the 5-day treatment period [11]: 2 g
tolerability (in words) [12]: lethally toxic
weight loss [12]: 6 g
Toxicity Controls Surv/Total (robustaflavone in 0.4% CMC, 1005 mg/kg/day (so in the source) i.p. bid × 5): 4/4
Toxicity Controls Mean Weight Change [13]: -0.8 g
Toxicity Controls Surv/Total [13]: 1/3
Toxicity Controls Mean Weight Change [14]: -1.7 g
Toxicity Controls Surv/Total [14]: 0/3
EC50 [5]: 39 µg/mL (≈ 72.4 µM)
pEC50 (Hepatitis B Virus (HBV) [6]; Hepatitis B virus, read-out: EC50, HBV replication intermediates (RI) (intracellular DNA)): 6.22
pEC50 (Hepatitis B Virus (HBV) [6]; Hepatitis B virus, read-out: EC50, second value in parentheses): 6.22
EC90 (Hepatitis B Virus (HBV) [6]; Hepatitis B virus, Table 2, value in parentheses, not explained, read-out: EC90, second value in parentheses): 5.6 µM
SI (CC50/EC90), second value in parentheses (Hepatitis B Virus (HBV) [6]; Table 2, value in parentheses, not explained): 60
EC50 [7]: ~56 µg/mL (≈ 104 µM)
EC50 [8]: 1.9 µg/mL (≈ 3.53 µM)
pEC50 (Hepatitis B Virus (HBV) [9]; Hepatitis B virus, read-out: EC50, concentration necessary to decrease HBV DNA levels by 50%, 2.2.15 cells, combinations: with respect to RF): 6.60
EC90 (Hepatitis B Virus (HBV) [9]; read-out: EC90 (90% effective dose), HBV Virion, extracellular (virion) HBV DNA, 9 days treatment): 2.4 µM
EC90 (Hepatitis B Virus (HBV) [9]; read-out: EC90 (90% effective dose), HBV Virion, extracellular (virion) HBV DNA, 9 days treatment, listed as Robustaflavone): 2.2 µM
EC90 (Hepatitis B Virus (HBV) [9]; read-out: EC90, concentration necessary to decrease HBV DNA levels by 90%, combinations: with respect to RF): 2.2 µM
SI (CC50/EC90), HBV Virion (Hepatitis B Virus (HBV) [9]): 153
SI (CC50/EC90), HBV Virion (Hepatitis B Virus (HBV) [9]; listed as Robustaflavone): 153
SI (CC50/EC90), HBV Virion (Hepatitis B Virus (HBV) [9]; listed as robustaflavone): 153

Source: patent US6399654B1, “Biflavanoids and derivatives thereof as antiviral agents” (priority 1995, dated 2002)
